Data reported in patent publication US10000773B2, “Cytochrome P450 and use thereof for the enzymatic oxidation of terpenes” (FIRMENICH SA, priority 2011, dated 2018).

What was measured:
[1] = tested on: vetiver P450s; experiment: Bioconversion of other monoterpene and sesquiterpene molecules using whole E. coli cells expressing the vetiver P450s and CPR; format: cell-based, Vetiveria zizanioides (L.) Nash; conditions: resting E. coli cells in potassium phosphate buffer as in Example 8
Protocol: The cells were harvested in exponential growing phase, centrifuged and resuspended in 0.5 volume of potassium phosphate buffer 50 mM pH 7.0 supplemented with 5% glycerol or 3% glucose. The substrate ((+)-zizaene) was added to a final concentration of 0.5 mg/ml as mixture composed of 10 mg Tween® 20 (sigma-Aldrich), 10 mg antifoam (Erol DF, PMC Ouvrie, Lesquin, France), 20 mg (+)-zizaene and 1 ml water. The conversion was allowed to proceed for 24 hours at 20° C. with moderate shaking. The media were extracted with 2 volumes of ethyl-acetate and the extracts were analyzed by GCMS on an Agilent 6890 Series GC system connected to an Agilent 5975 mass detector. The GC was equipped with 0.25 mm inner diameter by 30 m SPB-1 capillary column (Supelco, Bellefonte, Pa.). The carrier gas was He at a constant flow of 1 mL/min. The initial oven temperature was 50° C. (1 min hold) followed by a gradient of 10° C./min to 300° C. The identification of the products was based on the comparison of the mass spectra and retention indices with authentic standards and internal databases.
E. coli cells expressing the vetiver P450s and a CPR were prepared, grown and the bioconversions performed using resting cells in potassium phosphate buffer as described in Example 8.
Assays were performed with several terpene molecules and the formation of oxygenated terpene molecules was evaluated using GCMS analysis as described in Example 8.

[2] = tested on: VzP521-11-1; experiment: Bioconversion of (+)-zizaene using whole E. coli cells expressing VzP521-11-1 and a CPR; format: cell-based, Vetiveria zizanioides (L.) Nash; conditions: 24 hours at 20° C.
Protocol: (§1) The oxidation of (+)-zizaene can be performed using whole E. coli cells expressing the vetiver P450s and a CPR (bioconversion). Zizaene was prepared using engineered E. coli cells following the method described in the patent WO 2010/134004 and using the sesquiterpene synthase with the sequence accession number HI931369.
(§2) E. coli cells (BL21Star™(DE3) E. coli cells (Invitrogen Ltd) or JM109(DE3) (Promega)) were transformed with the plasmids pCW-2391-521-11 or pCW-2392-521-16 or cells were co-transformed with the plasmids pCW-218-521-11 or pCW-218-521-16 and pACYC-tcATR1-opt and were grown in TB medium supplemented with 3% glycerol or LB medium supplemented with 1% glucose. The cultures were incubated at 37° C. until reaching an optical density of 1. The cultures were then transferred to 28° C., 1 mM IPTG and 74 μg/ml δ-aminolevulinic acid were added and the culture were incubated for 24 hours.
(§3) The cells were harvested in exponential growing phase, centrifuged and resuspended in 0.5 volume of potassium phosphate buffer 50 mM pH 7.0 supplemented with 5% glycerol or 3% glucose. […] The media were extracted with 2 volumes of ethyl-acetate and the extracts were analyzed by GCMS on an Agilent 6890 Series GC system connected to an Agilent 5975 mass detector. […]

[3] = tested on: VzP521-16-1; experiment: Bioconversion of (+)-zizaene using whole E. coli cells expressing VzP521-16-1 and a CPR; format: cell-based, Vetiveria zizanioides (L.) Nash; conditions: 24 hours at 20° C.
Protocol: as §1, §2, §3

[4] = tested on: heterologous P450 and CPR complex; format: cell-based, E. coli
Protocol: The oxidized products of (+)-zizaene can also be produced in E. coli cells engineered to produce sesquiterpenes from a carbon source such as glucose or glycerol. Plasmids were prepared consisting of the pCWori (Barnes H. J (1996) Method Enzymol. 272, 3-14) plasmid containing an operon composed of the P450, the P450-reductase and the terpene synthase. Two plasmids were thus prepared by inserting an RBS sequence and the optimized sequence encoding for the (+)-zizaene synthase (VzZS) after the stop codon of the CPR sequence in the pCW-2391-521-11 or pCW-2392-521-16.
The VzZS was amplified from pETDuet-VzZS-opt plasmid (as described in WO 2010/134004) using the primers 2401-VzZS-F (SEQ ID NO:33) and 2401-VzZS-R (SEQ ID NO:34). […]
OverExpress™ C43(DE3) E. coli cells (Lucigen® Corporation) were co-transformed with the plasmid pACYC-29258-4506 and the plasmid pCW-2401-521-11 or the plasmid pCW-2402-521-16. […] After 48 hours, the cultures were extracted with 2 volumes of tert-Butyl methyl ether (MTBE) and the extracts analyzed by GCMS as described in Example 8, except for the oven temperature that was initially set at 80° C. with one minute hold, followed by gradient of 10° C./min to 300° C.

| Compound | bioconversion, formation of oxygenated terpene molecules (GCMS) [1] | also measured |
| --- | --- | --- |
| C=C(C)C1CC=C(C)CC1 (single isomer, unassigned; (+)) [(+)-limonene] | bioconversion was observed |  |
| C=C1[C@H]2CC[C@H](C)[C@@]23CC[C@@H](C3)C1(C)C [(+)-zizaene] | bioconversion was observed | oxidation products identified by GCMS [2]: khusimol, zizanal and zizanoic acid; oxidation of substrate (GCMS) ([2]; substrate 0.5 mg/ml): oxidation of (+)-zizaene was observed; oxidation products identified by GCMS [3]: khusimol, zizanal and zizanoic acid; oxidation of substrate (GCMS) ([3]; substrate 0.5 mg/ml): oxidation of (+)-zizaene was observed; oxidation of the sesquiterpene produced in the engineered cells (GCMS) [4]: is oxidized by the heterologous P450 and CPR complex |
| C=C1CC[C@@H]2[C@H]([C@@H]3[C@H](C)CC[C@H]13)C2(C)C [alloaromadendrene] | bioconversion was observed |  |
| CC1=CC[C@@]23C[C@@H]1C(C)(C)[C@@H]2CC[C@H]3C [alpha-cedrene] | bioconversion was observed |  |
| CC1=CC[C@H]2[C@H]3[C@@H]1[C@]2(C)CC[C@H]3C(C)C [alpha-copaene] | bioconversion was observed |  |
| CC1=CC[C@]23C[C@H]1C(C)(C)[C@@H]2CC[C@H]3C [alpha-funebrene] | bioconversion was observed |  |
| C/C1=C\CC/C(C)=C/CC(C)(C)/C=C/C1 [alpha-humulene] | bioconversion was observed |  |
| CC1=CC[C@@H]2[C@@H]3[C@H]1[C@@]2(C)CCCC3(C)C [alpha-longipinene] | bioconversion was observed |  |
| CC1=CCC2CC1C2(C)C (stereo not drawn) [alpha-pinene] | bioconversion was observed |  |
| C=C1CCCC(C)(C)[C@@]12CC=C(C)CC2 [beta-chamigrene] | bioconversion was observed |  |
| C=C1CC[C@@]23C[C@@H]1C(C)(C)[C@@H]2CC[C@H]3C [beta-funebrene] | bioconversion was observed |  |
| C=C1CCC2CC1C2(C)C (stereo not drawn) [beta-pinene] | bioconversion was observed |  |
| C=C(C)[C@H]1C=C2[C@H](C)CC[C@@H]2[C@H](C)CC1 [gamma-gurjunene] | bioconversion was observed |  |
| C=C1[C@H]2C[C@H]3[C@@H](C(C)C)CC[C@]1(C)[C@H]3C2 [isosativene] | bioconversion was observed |  |
| CC1=C2CC[C@@H](C)[C@H]2[C@H]2[C@@H](CC1)C2(C)C [ledene] | bioconversion was observed |  |
| CC1=CC[C@]2(C)CCCC(C)(C)[C@@]23C[C@@H]13 [thujopsene] | bioconversion was observed |  |
| C=C(C)[C@@H]1CCC2=CCC[C@@H](C)[C@]2(C)C1 [valencene] | bioconversion was observed |  |
| (−)-limonene | bioconversion was observed |  |
| alpha gurjunene | bioconversion was observed |  |
| alpha neoclovenene | bioconversion was observed |  |
